Measured values published in patent US7115750B1, “Melanin concentrating hormone antagonist” (Takeda Pharmaceutical Company Limited, priority 1999, dated 2006).
Counter-ions that a name gives are not always drawn.

SMILES	melting point
CN(C)CC1CCCc2cc(NC(=O)c3ccc(-c4ccc(F)cc4)cc3)ccc2C1 (stereo not shown) [Example 45, 4′-Fluoro-N-[6-[(dimethylamino)methyl]-6,7,8,9-tetrahydro-5H-benzo[a]cyclohepten-2-yl][1,1′-biphenyl]-4-carboxamide]	167 to 169 °C
CSc1ccc(-c2ccc(C(=O)Nc3ccc4c(c3)CCC(CN(C)C)C4)cc2)cc1 (stereo not shown) [Example 36, N-[6-[(N,N-Dimethylamino)methyl]-5,6,7,8-tetrahydro-2-naphthalenyl]-4′-(methylsulfanyl)[1,1′-biphenyl]-4-carboxamide]	178 to 180 °C
Cc1cc(Br)ccc1C(=O)Nc1ccc2c(c1)CCC(CN(C)C)C2 (stereo not shown) [Example 24, 4-Bromo-N-[6-[(N,N-dimethylamino)methyl]-5,6,7,8-tetrahydro-2-naphthalenyl]-2-methylbenzamide]	140 to 142 °C
CNc1ccc(-c2ccc(C(=O)Nc3ccc4c(c3)CCC(CN(C)C)C4)cc2)cc1 (stereo not shown) [Example 38, N-[6-[(N,N-Dimethylamino)methyl]-5,6,7,8-tetrahydro-2-naphthalenyl]-4′-(methylamino)[1,1′-biphenyl]-4-carboxamide]	163 to 165 °C
CN(C)CC1CCc2cc(NC(=O)c3ccc(OCc4ccccc4)cc3)ccc2C1 (stereo not shown) [Example 5, 4-(Benzyloxy)-N-[2-(N,N-dimethylamino)methyl-6-tetralinyl]benzamide]	135 to 136 °C
CN(C)CC1CCc2cc(NC(=O)N3CCC(c4ccc(F)cc4)CC3)ccc2C1O (stereo not shown) [Example 203, N-[6-[(Dimethylamino)methyl]-5-hydroxy-5,6,7,8-tetrahydro-2-naphthalenyl]-4-(4-fluorophenyl)-1-piperidinecarboxamide]	160 to 163 °C
O=C(NCCN1CCCC1)c1ccc(NC(=O)c2ccc(-c3ccccc3)cc2)cc1 [compound 23]	241 to 245 °C (dec.)
CN(C)CC1CCc2cc(NC(=O)c3ccc4c(c3)C(=O)c3ccccc3-4)ccc2C1 (stereo not shown) [Example 6, N-[2-(N,N-Dimethylamino)methyl-6-tetralinyl]-9-oxo-9H-fluoren-2-carboxamide]	224 to 226 °C
CN(C)CC1CCc2cc(NC(=O)c3ccc(-c4ccc(Cl)c(Cl)c4)cc3)ccc2C1 (stereo not shown) [Example 16, 3′,4′-Dichloro-N-[6-[(N,N-dimethylamino)methyl]-5,6,7,8-tetrahydro-2-naphthalenyl][1,1′-biphenyl]-4-carboxamide]	143 to 145 °C
CN(C)CC1CCc2cc(NC(=O)c3ccc(-c4cccs4)cc3)ccc2C1 (stereo not shown) [Example 34, N-[6-[(N,N-Dimethylamino)methyl]-5,6,7,8-tetrahydro-2-naphthalenyl]-4-(2-thienyl) benzamide]	165 to 166 °C
CCCc1ccc(-c2ccc(C(=O)Nc3ccc4c(c3)CCC(CN(C)C)C4)cc2)cc1 (stereo not shown) [Example 22, N-[6-[(N,N-Dimethylamino)methyl]-5,6,7,8-tetrahydro-2-naphthalenyl]-4′-propyl[1,1′-biphenyl]-4-carboxamide]	186 to 188 °C
CN(C)CCNC(=O)Cc1ccc(NC(=O)c2ccc3c(c2)S(=O)(=O)c2ccccc2C3=O)cc1 [Example 194, N-[4-[2-[[2-(Dimethylamino)ethyl]amino]-2-oxoethyl]phenyl]-9,10,10-trioxo-9,10-dihydro-10λ^6-thioxanten-3-carboxamide]	162 to 163 °C (dec.)
CN(C)CCNC(=O)Cc1ccc(NC(=O)c2ccc(C(=O)c3ccccc3)cc2)cc1 [Example 196, 4-Benzoyl-N-[4-[2-[[2-(dimethylamino)ethyl]amino]-2-oxoethyl)phenyl]benzamide]	173 to 175 °C (dec.)
CN(C)CC1COc2cc(NC(=O)c3ccc(-c4ccc(Cl)cc4)cc3)ccc2O1 (stereo not shown) [Example 106, 4′-Chloro-N-[2-[(dimethylamino)methyl]-2,3-dihydro-1,4-benzodioxin-6-yl][1,1′-biphenyl]-4-carboxamide]	215 to 217 °C
CN(C)CC1CCc2cc(NC(=O)c3ccc(C(=O)Nc4ccccc4)cc3)ccc2C1 (stereo not shown) [Example 10, N^1-[2-(N,N-Dimethylamino)methyl-6-tetralinyl]-N^4-phenyl terephthalamide]	238 to 240 °C (dec.)
CN(C)CC1CCc2cc(NC(=O)c3ccc(C(=O)c4ccccc4)cc3)ccc2C1 (stereo not shown) [Example 2, 4-Benzoyl-N-[2-(N,N-dimethylamino)methyl-6-tetralinyl]benzamide]	193 to 196 °C
CN(C)CC1CCc2cc(NC(=O)c3ccc(-c4ccc(Cl)cc4)cc3Cl)ccc2C1 (stereo not shown) [Example 26, 3,4′-Dichloro-N-[6-[(N,N-dimethylamino)methyl]-5,6,7,8-tetrahydro-2-naphthalenyl][1,1′-biphenyl]-4-carboxamide]	177 to 179 °C
CN(C)CC1CCc2cc(NC(=O)c3cc4ccccc4[nH]3)ccc2C1 (stereo not shown) [Example 122]	190 to 192 °C
CN(C)CCNC(=O)Cc1ccc(NC(=O)Cc2ccccc2Cc2ccccc2)cc1 [Example 186, 2-(2-Benzylphenyl)-N-[4-[2-[[2-(dimethylamino)ethyl]amino]-2-oxoethyl]phenyl]acetamide]	115 to 117 °C

More lines, now with the values ahead:

melting point	SMILES
179 to 180 °C	COc1ccc(-c2ccc(C(=O)Nc3ccc4c(c3)CCC(CN3CCCC3)=C4C)cc2)cc1 [Example 200, 4′-Methoxy-N-[6-(1-pyrrolidinylmethyl)-5-methyl-7,8-dihydro-2-naphthalenyl][1,1′-biphenyl]-4-carboxamide]
178 to 179 °C	CC1=C(CN2CCCC2)CCc2cc(NC(=O)c3ccc(-c4ccccc4)nc3)ccc21 [Example 233, N-[5-Methyl-6-(1-pyrrolidinylmethyl)-7,8-dihydro-2-naphthalenyl]-6-phenylnicotinamide]
173 to 175 °C	CN(C)CC1=Cc2ccc(NC(=O)c3ccc(-c4ccccc4)cc3)cc2CC1 [Example 47, N-[6-[(Dimethylamino)methyl]-7,8-dihydro-2-naphthalenyl][1,1′-biphenyl]-4-carboxamide]
201 to 203 °C	CN(C(=O)c1ccc(-c2ccc(F)cc2)cc1)c1ccc2c(c1)CCC(CN1CCCC1)=C2 (as salt: hydrochloride) [Example 226, 4′-Fluoro-N-methyl-N-[6-(1-pyrrolidinylmethyl)-7,8-dihydro-2-naphthalenyl][1,1′-biphenyl]-4-carboxamide Hydrochloride]
191 to 192 °C	N#CC1=C(CN2CCCC2)CCc2cc(NC(=O)c3ccc(-c4ccc(Cl)cc4)cc3)ccc21 [Example 117, 4′-Chloro-N-[5-cyano-6-(1-pyrrolidinylmethyl)-7,8-dihydro-2-naphthalenyl][1,1′-biphenyl]-4-carboxamide]
179 to 181 °C	O=C(Nc1ccc2c(c1)CCC(CN1CCCCC1)C2)c1ccc(-c2ccc(F)cc2)cc1 (stereo not shown) [Example 54, 4′-Fluoro-N-[6-(1-piperidinylmethyl)-5,6,7,8-tetrahydro-2-naphthalenyl][1,1′-biphenyl]-4-carboxamide]
218 to 220 °C	O=C(Nc1ccc2c(c1)OCC(CN1CCCC1)O2)c1ccc(-c2ccc(Cl)cc2)nc1 (stereo not shown) [Example 108, 6=(4-Chlorophenyl)-N-[2-(1-pyrrolidinylmethyl)-2,3-dihydro-1,4-benzodioxin-6-yl]nicotinamide]
169 to 170 °C	O=C(Nc1ccc2c(c1)CCC(CN1CCCC1)=C2)c1ccc(-c2ccc(F)cc2F)nc1 [Example 87, 6-(2,4-Difluorophenyl)-N-[6-[(1-pyrrolidinyl)methyl]-7,8-dihydro-2-naphthalenyl]nicotinamide]
195 to 196 °C	Cc1ccc(-c2ccc(C(=O)Nc3ccc4c(c3)CCC(CN(C)C)=C4)cc2)cc1 [Example 85]
202 to 203 °C	CN(C)CC1=Cc2ncc(NC(=O)c3ccc(-c4ccccc4)cc3)cc2CC1 [Example 133, N-[7-[(Dimethylamino)methyl]-5,6-dihydro-3-quinolinyl][1,1′-biphenyl]-4-carboxamide]
186 to 187 °C	O=C(Nc1ccc2c(c1)CCC(CN1CCCC1)=C2)c1ccc(-c2ccccc2)nc1 [Example 153, 6-Phenyl-N-[6-(1-pyrrolidinylmethyl)-7,8-dihydro-2-naphthalenyl]nicotinamide]
225 to 227 °C	O=C(Nc1ccc2c(c1)CCC(CN1CCCC1)=C2)c1ccc(-c2ccc(F)cc2)nc1 [Example 149, 6-(4-Fluorophenyl)-N-[6-[(1-pyrrolidinyl)methyl]-7,8-dihydro-2-naphthalenyl]nicotinamide]
214 to 216 °C	Cc1ccc(C2CCN(C(=O)Nc3ccc4c(c3)CCC(CN3CCN(C)CC3)=C4)CC2)cc1 [Example 241, 4-(4-Methylphenyl)-N-[6-[(4-methyl-1-piperazinyl)methyl]-7,8-dihydro-2-naphthalenyl]-1-piperidinecarboxamide]
162 to 163 °C	CN(C)CC1=Cc2ccc(NC(=O)c3ccc(-c4ccc(F)cc4F)nc3)cc2CC1 [Example 152, 6-(2,4-Difluorophenyl)-N-[6-[(dimethylamino)methyl]-7,8-dihydro-2-naphthalenyl]nicotinamide]
194 to 195 °C	O=C(Nc1ccc2c(c1)CCC(CN1CCCC1)=C2)N1CCC(c2ccc(Cl)cc2)CC1 [Example 165, 4-(4-Chlorophenyl)-N-[6-(1-pyrrolidinylmethyl)-7,8-dihydro-2-naphthalenyl]-1-piperidinecarboxamide]
168 to 171 °C	CN(C)CC1=Cc2ccc(NC(=O)CNC(=O)c3ccc(Cl)cc3)cc2CC1 [Example 126, 4-Chloro-N-[2-[[6-[(dimethylamino)methyl]-7,8-dihydro-2-naphthalenyl]amino]-2-oxoethyl]benzamide]
159 to 160 °C	CC1=C(CN2CCCC2)CCc2cc(NC(=O)N3CCC(c4ccc(C)cc4)CC3)ccc21 [Example 238, 4-(4-Methylphenyl)-N-[5-methyl-6-(1-pyrrolidinylmethyl)-7,8-dihydro-2-naphthalenyl]-1-piperidinecarboxamide]
176 to 177 °C	O=C(Nc1ccc2c(c1)CCC(CN1CCCC1)=C2)c1ccc(-c2ccccc2)cc1 [Example 94, N-[6-(1-Pyrrolidinylmethyl)-7,8-dihydro-2-naphthalenyl][1,1′-biphenyl]-4-carboxamide]
